Paper PMC9354705, “Characterization of TR‐107, a novel chemical activator of the human mitochondrial protease ClpP” (Pharmacology Research & Perspectives, 2022)
Read-outs that look alike come from different tables or passages of the source.

Experiments:
[1] = system: C3(1)‐Tag cells; test: Cell viability assay of C3Tag cells; format: cell-based, murine; conditions: Mus musculus; 72 h, Hoechst stain, N = 2
[2] = system: MDA‐MB‐231 or SUM159 cells; test: Caspase‐3/7 activity assay and PARP cleavage; format: cell-based, human; conditions: for caspase‐3/7 activity: 24 h, 10 μM ONC201, 150 nM TR‐57, 100 nM TR‐107, 100 nM staurosporine; for PARP cleavage: data not shown
Protocol: […]. The samples were collected in lysis buffer (50 mM HEPES [pH: 7.4], 5 mM CHAPS, and 5 mM DTT), and caspase activity was measured by monitoring fluorescence (ex/em: 360/460 nm) using a SpectraMax i3x (Molecular Devices).

[3] = system: MDA‐MB‐231 cells; test: Cell viability (total cell count, Hoechst stain) in MDA‐MB‐231 cells; format: cell-based, human; conditions: Homo sapiens, MDA-MB-231, 72 h
[4] = system: SUM159 cells; test: Cell viability (total cell count, Hoechst stain) in SUM159 cells; format: cell-based; conditions: Homo sapiens, WT cells, 72 h, mean N = 3
Protocol: Human TNBC cell line SUM159 was a generous gift from Dr. Gary Johnson (the University of North Carolina at Chapel Hill). MDA‐MB‐231 (WT and CLPP‐KO) cells were provided by Dr. Stanley Lipkowitz (National Cancer Institute). MDA‐MB‐231 cells were cultured in RPMI‐1640 media (Gibco, 11875‐093) supplemented with 10% fetal bovine serum (FBS; VWR‐Seradigm, 97068‐085), and 1% antibiotic–antimycotic (anti/anti; ThermoFisher Scientific, 15240062). SUM159 cells were cultured in Dulbecco's modified Eagle's medium: Nutrient Mixture F‐12 (DMEM/F12; Gibco, 11330‐032) supplemented with 5% FBS, 5 μg/ml insulin (Gibco, 12585014), 1 μg/ml hydrocortisone, and 1% anti/anti. Cells were maintained at 5% CO2 and 37°C and periodically tested for mycoplasma.
Total cell counting assays were performed by seeding MDA‐MB‐231 cells (WT and ClpP‐KO; 4000 cells/well) or SUM159 (WT and ClpP‐KO; 1000 cells/well) in a 96‐well plate (Perkin Elmer, 6005050) and allowed to adhere overnight. The growth medium was then aspirated and replaced with 100 μl of growth medium supplemented with the drug at concentrations indicated in the figure or figure legends. Cells treated with vehicle control (0.1% DMSO, Sigma‐Aldrich D2650) were used as a negative control in all experiments, and cells were incubated with drug‐containing media for 24, 48, or 72 h as indicated in figure legends. Media was then aspirated and replaced with 100 μl Dulbecco's phosphate‐buffered saline (DPBS Gibco, 14190‐144) containing 1 μg/ml Hoechst stain (ThermoFischer Scientific, H3570) and allowed to incubate at 37°C for 30 min. The total cell number was then quantified using the Celigo Imaging Cytometer (Nexcelom).

[5] = target: purified recombinant human ClpP (Homo sapiens, UniProt Q16740); test: In vitro ClpP activity assay (casein‐FITC degradation); format: biochemical; conditions: relative to DMSO, read-out: EC50 (nM) ClpP activation
purified recombinant human ClpP, sequence (Q16740 57-277): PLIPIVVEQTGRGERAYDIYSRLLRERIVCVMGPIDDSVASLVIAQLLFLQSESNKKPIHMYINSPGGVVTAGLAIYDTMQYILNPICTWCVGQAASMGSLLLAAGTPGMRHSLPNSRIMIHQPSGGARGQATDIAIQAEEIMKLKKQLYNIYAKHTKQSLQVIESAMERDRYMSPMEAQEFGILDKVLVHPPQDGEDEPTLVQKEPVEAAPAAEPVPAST
Protocol: Measurement of in vitro activity of purified recombinant human ClpP was performed with a slight modification to the method previously described.[46] Briefly, ClpP activity was measured through the degradation of casein‐FITC (Sigma‐Aldrich, C0528) in the presence of indicated compounds. […] Enzyme and compounds were mixed and incubated in assay buffer for 30 min before adding casein‐FITC substrate. […] Linear slope of fluorescence signal was used to measure ClpP activity and normalized to DMSO control, expressed as RFU/h.

[6] = Pharmacokinetic analysis in ICR mice; format: in vivo, mouse; conditions: for bioavailability: 10 mg/kg oral vs 2.0 mg/kg i.v., read-out: F% (oral bioavailability)
Protocol: Samples were placed in tubes containing heparin sodium and stored on ice until centrifuged. Blood samples were centrifuged at 6800g for 6 min at 2–8°C within 1 h following sample collection and stored at −80°C. Proteins from plasma sample aliquots (20 μl) were precipitated by the addition of MeOH (400 μl) containing an internal standard (tolbutamide,100 ng/ml), vortexed for 1 min, and centrifuged at 18 000g for 7 min. The supernatant (200 μl) was transferred to 96 well plates for analysis.
Analysis of samples was conducted as follows. […] The PK parameters including Area Under the Curve (AUC[0–∞]) elimination half‐life (t 1/2), maximal plasma concentration (C max), and oral bioavailability (F%) were analyzed by noncompartmental methods.

[7] = system: MDA‐MB‐231 and SUM159 cells; test: Immunoblotting for mitochondrial proteins; format: cell-based, human; conditions: 100 nM TR‐107, 150 nM TR‐57, or 10 μM ONC201
Protocol: Cell lysates were clarified and immunoblotted as described earlier.[45] Membranes were incubated with primary antibodies (Appendix S1) diluted 1:1000 in 1% fish gelatin (Sigma‐Aldrich, G7041)/TBST overnight at 4°C, removed, washed 3 × 5 min in TBST, and placed in their respective 2° antibodies (1:10 000 dilution in 5% milk/TBST) for 1 h. […] Acquired images were processed/quantified using Image Lab software (BioRad) or Image Studio Lite (LI‐COR).

[8] = cited from earlier work
[9] = WT cells, Hoechst stain, mean N = 3, read-out: IC50 (nM) MDA-MB-231
[10] = male, mouse, plasma, iv, ICR mice, 2.0 mg/kg i.v.
[11] = male, mouse, plasma, iv, ICR mice, 2.0 mg/kg i.v., read-out: C max
[12] = male, mouse, plasma, iv, ICR mice, 2.0 mg/kg i.v., read-out: C max (mg/ml)
[13] = male, mouse, plasma, iv, ICR mice, 2.0 mg/kg i.v., read-out: T 1/2 (converted)
[14] = male, mouse, plasma, ICR mice, 10 mg/kg oral
[15] = male, mouse, plasma, ICR mice, 10 mg/kg oral, read-out: C max
[16] = male, mouse, plasma, ICR mice, 10 mg/kg oral, read-out: C max (mg/ml)
[17] = male, mouse, plasma, ICR mice, 10 mg/kg oral, read-out: T 1/2 (converted)

SMILES | IC50 [3, 9] | IC50 [4] | EC50 [5] | AUC(0-inf) [6, 10] | Cmax [6, 11] | Cmax [6, 12] | half-life [6, 13] | bioavailability ([6]; male, mouse, plasma, ICR mice) | Cmax [6, 15] | Cmax [6, 16] | half-life [6, 17] | also measured
CC(=O)O[C@H]1C(=O)[C@@]2(C)[C@H]([C@H](OC(=O)c3ccccc3)[C@]3(O)C[C@H](OC(=O)[C@H](O)[C@@H](NC(=O)c4ccccc4)c4ccccc4)C(C)=C1C3(C)C)[C@]1(OC(C)=O)CO[C@@H]1C[C@@H]2O [Paclitaxel, paclitaxel, reference compound] |  |  |  |  |  |  |  |  |  |  |  | IC50 [1]: 14 nM
CN[C@@H]1C[C@H]2O[C@@](C)([C@@H]1OC)n1c3ccccc3c3c4c(c5c6ccccc6n2c5c31)C(=O)NC4 [Staurosporine, staurosporine, reference compound] |  |  |  |  |  |  |  |  |  |  |  | caspase‐3/7 activity [2]: strong increase
Cc1nc2c(c(=O)n1Cc1ccc(Cl)cc1)CN(Cc1cccc(C#N)c1)CC2 [TR‐97] | 104 nM | 53 nM | 340 nM |  |  |  |  |  |  |  |  | 
N#Cc1cccc(CN2CCC3=C(C2)C(=O)N(Cc2ccc(Cl)cc2)C2=NCC(F)(F)CN23)c1 [TR‐106] | 430 nM | 120 nM | 1100 nM |  |  |  |  |  |  |  |  | 
Cn1c2c(c(=O)n(Cc3ccc(Cl)cc3)c1=O)CN(Cc1cccc(C#N)c1)CC2 [TR‐57] |  |  |  | 886 ng·h/mL | 3000 nM | 1240 ng/mL | 1.52 h | 61% | 4100 nM | 1710 ng/mL | 1.4 h | AUC ([6]; male, mouse, plasma, po, ICR mice, 10 mg/kg orally, read-out: exposure (AUC)): 2710 ng·h/mL; AUC(0-inf) [6, 14]: 2710 ng·h/mL; TUFM and TFAM protein levels by 24 h [7]: complete or near‐complete loss; time at which TUFM and TFAM protein levels began to decline [7]: ~ 6 h; caspase‐3/7 activity [2]: no increase; PARP cleavage [2]: no increase
Cc1ccccc1CN1C(=O)C2=C(CCN(Cc3ccccc3)C2)N2CCN=C12 [ONC201, reference compound] |  |  |  | 50.7 ng·h/mL | 310 nM |  | 0.26 h | 1.2% | 23 nM |  | 0.31 h | IC50 ([3]; media containing galactose, read-out: IC50 (nM) Galactose): 350 nM; IC50 ([3]; media containing glucose, read-out: IC50 [glucose]): 1700 nM; increase in exposure (AUC) vs 10 mg/kg oral ([6]; 25 mg/kg oral): 46 X; AUC (0–∞) ([6]; ICR mice, 10 mg/kg oral): 3.13 ng·h/mL; Cmax ([6]; male, mouse, in vivo, iv, ICR mice, 2.0 mg/kg i.v., read-out: C max (mg/ml)): 122 ng/mL; Cmax ([6]; male, mouse, in vivo, ICR mice, 10 mg/kg oral, read-out: C max (mg/ml)): 8.99 ng/mL; Cmax ([6]; male, mouse, in vivo, ICR mice, 25 mg/kg oral, blood collection 0.083–4 h, read-out: C max (mg/ml)): 195 ng/mL; AUC(0-inf) ([6]; male, mouse, plasma, ICR mice, 25 mg/kg oral, blood collection 0.083–4 h): 145 ng·h/mL; Cmax ([6]; male, mouse, plasma, ICR mice, 25 mg/kg oral, blood collection 0.083–4 h, read-out: C max): 500 nM; half-life ([6]; male, mouse, plasma, ICR mice, i.v. 2 mg/kg and oral 10 mg/kg arms, read-out: t 1/2 (range over study arms)): 0.26 to 0.31 h; TUFM and TFAM protein levels by 24 h [7]: complete or near‐complete loss; time at which TUFM and TFAM protein levels began to decline [7]: ~ 6 h; reported t 1/2 ([8]; in mice, higher doses): 6.4 h; caspase‐3/7 activity [2]: no increase; PARP cleavage [2]: no increase
O=C1C2=C(CCN(Cc3ccccc3)C2)N2CCN=C2N1Cc1ccc(F)cc1F [ONC206, reference compound] | 260 nM | 180 nM | 830 nM |  |  |  |  |  |  |  |  | 
N#Cc1cccc(CN2CCC3=C(C2)C(=O)N(Cc2ccc(Cl)cc2)C2=NCCN23)c1 [TR‐65] |  |  |  | 351 ng·h/mL | 1500 nM | 636 ng/mL | 0.73 h | 33% | 670 nM | 294 ng/mL | 0.95 h | AUC(0-inf) [6, 14]: 584 ng·h/mL
N#Cc1cccc(CC2CCC3=C(C2)C(=O)N(Cc2ccc(C(F)(F)F)cc2)C2=NCCN23)c1 (stereo not shown) [TR‐109] | 2200 nM | 4600 nM | 670 nM |  |  |  |  |  |  |  |  | 
N#Cc1cccc(CC2CCC3=C(C2)C(=O)N(Cc2ccc(Cl)cc2)C2=NCCN23)c1 (stereo not shown) [TR‐122] | 2600 nM | 3500 nM | 1100 nM |  |  |  |  |  |  |  |  | 
O=C1C2=C(CCN(Cc3ccccc3)C2)N2CCN=C2N1Cc1ccc(C(F)(F)F)cc1 [ONC212/TR‐31, reference compound] | 80 nM | 27 nM | 310 nM | 638 ng·h/mL | 2200 nM | 950 ng/mL | 1.68 h | 14% | 640 nM | 282 ng/mL | 1.49 h | AUC(0-inf) [6, 14]: 449 ng·h/mL; reported t 1/2 ([8]; oral dose of 125 mg/kg): 4.3 h
N#Cc1cccc(CN2CCC3=C(C2)C(=O)N(Cc2ccc(C(F)(F)F)cc2)C2=NCCCN23)c1 [TR‐98] | 21 nM | 24 nM | 310 nM |  |  |  |  |  |  |  |  | 
C#Cc1cccc(CN2CCC3=C(C2)C(=O)N(Cc2ccc(Cl)cc2)C2=NCCN23)c1 [TR‐27] |  |  |  | 155 ng·h/mL | 350 nM | 154 ng/mL | 1.06 h | 33% | 290 nM | 127 ng/mL | 1.16 h | 
